Measured values: patent US20260265238A1, “COMPOUNDS AND PHARMACEUTICAL COMPOSITIONS THAT DEGRADE SWI/SNF-RELATED MATRIX-ASSOCIATED ACTIN-DEPENDENT REGULATOR OF CHROMATIN SUBFAMILY A” (Plexium, Inc., priority 2023, published 2026)

What was measured:
[1] = molecular target: T1, SMARCA2-HiBiT HeLa cells (protein which is expressed from the SMARCA2 gene) (Homo sapiens, UniProt P51531); assay: SMARCA2 degradation assay (HiBiT-fusion HeLa cell line, 24 h, luminescence); assay type: cell-based
T1 construct: protein which is expressed from the SMARCA2 and SMARCA4 genes; host or cells: HeLa (SMARCA2-HiBiT engineered line)
Procedure, shortened: (§1)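 HeLa cells carrying HiBiT-tagged SMARCA2 or SMARCA4 were seeded at 8,000 cells/well, allowed to attach overnight at 37° C., then given compounds in a 10-point dilution series (typically 10 μM to 300 pM) for 24 hours at 37° C. Remaining tagged protein was read by HiBiT lytic luminescence, and DC50s came from dose-response curves.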

[2] = molecular target: T2, SMARCA4-HiBiT HeLa cells (protein which is expressed from the SMARCA4 gene) (Homo sapiens, UniProt P51532); assay: SMARCA4 degradation assay (HiBiT-fusion HeLa cell line, 24 h, luminescence); assay type: cell-based
T2 construct: protein which is expressed from the SMARCA2 and SMARCA4 genes; host or cells: HeLa (SMARCA4-HiBiT engineered line)
Procedure, shortened: as §1

T1 sequence (P51531 whole entry, the tested form may be a part): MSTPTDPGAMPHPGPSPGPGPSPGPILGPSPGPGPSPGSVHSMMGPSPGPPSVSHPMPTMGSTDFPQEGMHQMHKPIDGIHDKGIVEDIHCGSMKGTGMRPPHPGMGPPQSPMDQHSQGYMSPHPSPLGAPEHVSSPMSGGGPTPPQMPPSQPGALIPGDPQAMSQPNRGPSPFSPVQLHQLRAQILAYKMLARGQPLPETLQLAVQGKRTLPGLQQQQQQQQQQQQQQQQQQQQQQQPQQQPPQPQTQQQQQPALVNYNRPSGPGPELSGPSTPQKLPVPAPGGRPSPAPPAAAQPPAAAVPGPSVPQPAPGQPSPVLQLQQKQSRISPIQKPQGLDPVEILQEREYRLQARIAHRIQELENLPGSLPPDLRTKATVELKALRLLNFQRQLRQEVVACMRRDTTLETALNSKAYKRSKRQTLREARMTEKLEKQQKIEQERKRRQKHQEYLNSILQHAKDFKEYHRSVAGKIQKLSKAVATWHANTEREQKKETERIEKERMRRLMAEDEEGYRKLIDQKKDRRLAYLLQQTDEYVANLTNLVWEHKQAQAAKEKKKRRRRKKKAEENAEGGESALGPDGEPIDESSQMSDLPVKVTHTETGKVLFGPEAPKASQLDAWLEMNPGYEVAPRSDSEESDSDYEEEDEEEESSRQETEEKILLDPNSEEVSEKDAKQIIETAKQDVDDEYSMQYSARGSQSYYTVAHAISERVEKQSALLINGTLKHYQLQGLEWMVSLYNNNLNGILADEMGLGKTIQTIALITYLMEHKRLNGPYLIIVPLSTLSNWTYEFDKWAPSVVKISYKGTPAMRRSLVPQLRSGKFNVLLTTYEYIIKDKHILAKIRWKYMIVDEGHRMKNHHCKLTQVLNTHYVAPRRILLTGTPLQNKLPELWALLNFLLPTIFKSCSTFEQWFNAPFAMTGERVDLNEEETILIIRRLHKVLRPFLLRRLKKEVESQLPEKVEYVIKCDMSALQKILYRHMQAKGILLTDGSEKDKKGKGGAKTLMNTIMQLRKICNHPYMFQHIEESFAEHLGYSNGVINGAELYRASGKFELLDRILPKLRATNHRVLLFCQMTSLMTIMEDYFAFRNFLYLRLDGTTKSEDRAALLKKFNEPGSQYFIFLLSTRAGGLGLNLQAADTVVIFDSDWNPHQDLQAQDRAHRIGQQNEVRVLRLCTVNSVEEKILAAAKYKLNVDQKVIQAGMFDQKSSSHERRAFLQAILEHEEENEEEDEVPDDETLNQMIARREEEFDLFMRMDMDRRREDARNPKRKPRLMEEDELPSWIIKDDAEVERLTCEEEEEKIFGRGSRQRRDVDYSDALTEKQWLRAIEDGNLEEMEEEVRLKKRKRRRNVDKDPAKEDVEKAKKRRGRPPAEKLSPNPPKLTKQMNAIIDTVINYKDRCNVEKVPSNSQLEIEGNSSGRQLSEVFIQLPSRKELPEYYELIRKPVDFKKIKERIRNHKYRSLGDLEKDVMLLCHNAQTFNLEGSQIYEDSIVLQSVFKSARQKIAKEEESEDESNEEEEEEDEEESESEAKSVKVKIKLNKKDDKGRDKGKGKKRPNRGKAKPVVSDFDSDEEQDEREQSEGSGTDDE
T2 sequence (P51532 whole entry, the tested form may be a part): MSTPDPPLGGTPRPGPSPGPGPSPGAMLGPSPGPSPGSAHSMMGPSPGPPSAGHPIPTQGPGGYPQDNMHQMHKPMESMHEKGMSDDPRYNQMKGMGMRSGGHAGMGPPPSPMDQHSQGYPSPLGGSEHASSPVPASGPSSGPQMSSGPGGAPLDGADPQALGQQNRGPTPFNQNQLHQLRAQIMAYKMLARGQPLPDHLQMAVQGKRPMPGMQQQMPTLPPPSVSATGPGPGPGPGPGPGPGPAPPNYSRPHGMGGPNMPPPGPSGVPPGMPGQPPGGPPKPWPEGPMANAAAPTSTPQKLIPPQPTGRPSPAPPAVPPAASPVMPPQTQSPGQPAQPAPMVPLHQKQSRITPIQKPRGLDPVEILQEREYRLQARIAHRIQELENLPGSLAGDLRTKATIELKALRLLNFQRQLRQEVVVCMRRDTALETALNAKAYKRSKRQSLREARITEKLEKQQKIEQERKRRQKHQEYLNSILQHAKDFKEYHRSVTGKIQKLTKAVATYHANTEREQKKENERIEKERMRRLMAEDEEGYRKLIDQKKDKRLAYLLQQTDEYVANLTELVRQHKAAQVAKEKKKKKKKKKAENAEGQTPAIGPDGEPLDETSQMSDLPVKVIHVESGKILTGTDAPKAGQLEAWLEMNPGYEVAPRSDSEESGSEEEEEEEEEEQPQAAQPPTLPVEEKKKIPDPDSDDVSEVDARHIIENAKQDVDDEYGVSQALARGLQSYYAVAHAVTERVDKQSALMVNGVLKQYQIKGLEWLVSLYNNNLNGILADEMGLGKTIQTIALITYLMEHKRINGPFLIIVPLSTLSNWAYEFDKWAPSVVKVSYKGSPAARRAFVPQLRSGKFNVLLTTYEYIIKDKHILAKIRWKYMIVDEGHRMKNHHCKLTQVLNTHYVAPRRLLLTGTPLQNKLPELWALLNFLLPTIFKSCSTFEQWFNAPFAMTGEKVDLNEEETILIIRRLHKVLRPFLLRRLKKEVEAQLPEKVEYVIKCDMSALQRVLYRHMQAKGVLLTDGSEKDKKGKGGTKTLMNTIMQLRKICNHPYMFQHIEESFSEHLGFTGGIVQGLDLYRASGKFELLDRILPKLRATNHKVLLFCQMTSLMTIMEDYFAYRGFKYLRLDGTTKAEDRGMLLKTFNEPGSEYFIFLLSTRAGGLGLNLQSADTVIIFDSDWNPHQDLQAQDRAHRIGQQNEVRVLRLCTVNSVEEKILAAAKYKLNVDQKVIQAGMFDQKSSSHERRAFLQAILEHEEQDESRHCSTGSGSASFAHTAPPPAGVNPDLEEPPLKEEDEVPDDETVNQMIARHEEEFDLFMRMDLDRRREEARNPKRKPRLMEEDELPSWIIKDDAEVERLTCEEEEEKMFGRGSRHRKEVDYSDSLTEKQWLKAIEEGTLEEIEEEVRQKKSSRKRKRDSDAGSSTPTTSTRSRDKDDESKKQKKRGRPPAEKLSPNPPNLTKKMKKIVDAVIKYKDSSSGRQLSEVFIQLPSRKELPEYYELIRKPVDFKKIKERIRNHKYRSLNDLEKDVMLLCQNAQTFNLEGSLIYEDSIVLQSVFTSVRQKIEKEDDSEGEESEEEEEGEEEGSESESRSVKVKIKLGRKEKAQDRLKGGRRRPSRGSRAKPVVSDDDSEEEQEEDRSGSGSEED

Row | Compound | DC50 [1] [nM] | SMARCA2 % Degradation @ 1 μM ([1]; @ 1 μM) | DC50 [2] [nM] | inhibition at 1 µM ([2]; @ 1 μM) [%] | SMARCA2 % Degradation @ 1 μM ([1]; 1 μM) | inhibition at 1 µM ([2]; 1 μM) [%]
1 | Nc1nnc(-c2ccccc2O)cc1N1CCCN(c2ccnc(C#CCNC(=O)NC3CCC3)n2)CC1 [Compound P-325, 0-[6-amino-5-(4-{2-[3-(3-cyclobutylureido)-1-propynyl]-4-pyrimidinyl}-1,4-diazepan-1-yl)-3-pyridazinyl]phenol] | 500 to 5000 | ++ (++=30-70%) | 50 to 500 | 30 to 70 | – | –
2 | Nc1nnc(-c2ccccc2O)cc1N1CC2CCC(C1)N2c1ccnc(C#CCn2cncn2)n1 [Compound P-289, 0-[6-amino-5-(8-{2-[3-(1H-1,2,4-triazol-1-yl)-1-propynyl]-4-pyrimidinyl}-3,8-diazabicyclo[3.2.1]oct-3-yl)-3-pyridazinyl]phenol] | 50 to 500 | ++ (++=30-70%) | 50 to 500 | 30 to 70 | – | –
3 | C[C@@H]1CCN(c2cc(-c3ccccc3O)nnc2N)CCN1c1nc(C#CCn2ccnc2)ncc1F [Compound P-247, o-{5-[(R)-4-{5-fluoro-2-[3-(1-imidazolyl)-1-propynyl]-4-pyrimidinyl}-5-methyl-1,4-diazepan-1-yl]-6-amino-3-pyridaziny1}phenol] | 50 to 500 | ++ (++=30-70%) | 50 to 500 | 30 to 70 | – | –
4 | Cc1c(C(=O)NC/C=C/c2nccc(N3CCCN(c4cc(-c5ccccc5O)nnc4N)CC3)n2)nn(C)c1C [Compound P-111, (E)-N-(3-(4-(4-(3-amino-6-(2-hydroxyphenyl)pyridazin-4-yl)-1,4-diazepan-1-yl)pyrimidin-2-yl)allyl)-1,4,5-trimethyl-1H-pyrazole-3-carboxamide] | 50 to 500 | +++ (+++=>70%) | 50 to 500 | 30 to 70 | – | –
5 | Nc1nnc(-c2ccccc2O)cc1N1CCCN(c2ccnc(C#CCN3CCCC3)n2)CC1 [Compound P-366, 0-[6-amino-5-(4-{2-[3-(1-pyrrolidinyl)-1-propynyl]-4-pyrimidinyl}-1,4-diazepan-1-yl)-3-pyridazinyl]phenol] | 50 to 500 | +++ (+++=>70%) | 50 to 500 | > 70 | – | –
6 | Nc1nnc(-c2ccccc2O)cc1N1CC2CCC(C1)N2c1ccnc(C#CCCNC(=O)c2cc3ncccn3n2)n1 [Compound P-96, N-(4-(4-(3-(3-amino-6-(2-hydroxyphenyl)pyridazin-4-yl)-3,8-diazabicyclo[3.2.1]octan-8-yl)pyrimidin-2-yl)but-3-yn-1-yl)pyrazolo[1,5-a]pyrimidine-2-carboxamide] | 500 to 5000 | ++ (++=30-70%) | 50 to 500 | > 70 | – | –
7 | Nc1nnc(-c2ccccc2O)cc1N1CCN(c2ccnc(C#CCNC(=O)c3cc4ncccn4n3)n2)CC(F)C1 (centres unmarked) [Compound P-44, N-(3-(4-(4-(3-amino-6-(2-hydroxyphenyl)pyridazin-4-yl)-6-fluoro-1,4-diazepan-1-yl)pyrimidin-2-yl)prop-2-yn-1-yl)pyrazolo[1,5-a]pyrimidine-2-carboxamide] | 500 to 5000 | ++ (++=30-70%) | 500 to 5000 | 30 to 70 | – | –
8 | C[C@@H]1CCN(c2cc(-c3ccccc3O)nnc2N)CCN1c1ccc(C(F)(F)F)c(C#CCN2CCCC2)n1 [Compound P-394] | 500 to 5000 | – | 500 to 5000 | – | + (+=<30%) | –
9 | Nc1nnc(-c2ccccc2O)cc1N1CCCN(c2ccnc(C#CCN3C4CCC3CC(O)C4)n2)CC1 (centres unmarked) [Compound P-338, 8-[3-(4-{4-[3-amino-6-(o-hydroxyphenyl)-4-pyridazinyl]-1,4-diazepan-1-yl}-2-pyrimidinyl)-2-propynyl]-8-azabicyclo[3.2.1]octan-3-ol] | 50 to 500 | ++ (++=30-70%) | 50 to 500 | < 30 | – | –
10 | C[C@H]1CN(c2ccnc(C#CCn3ccnc3)n2)CCN1c1cc(-c2ccccc2O)nnc1N [Compound P-293, 0-{5-[(S)-4-{2-[3-(1-imidazolyl)-1-propynyl]-4-pyrimidinyl}-2-methyl-1-piperaziny1]-6-amino-3-pyridazinyl}phenol] | 50 to 500 | ++ (++=30-70%) | < 50 | < 30 | – | –
11 | C[C@@H]1CCN(c2cc(-c3ccccc3O)nnc2N)CCN1c1cc(C#CCn2ccnc2)ncc1Cl [Compound P-408, 0-{5-[(R)-4-{5-chloro-2-[3-(1-imidazolyl)-1-propynyl]-4-pyridyl}-5-methyl-1,4-diazepan-1-yl]-6-amino-3-pyridazinyl} phenol] | 50 to 500 | – | 50 to 500 | – | ++ (++=30-70%) | 30 to 70
12 | Cc1c(C(=O)NCC#Cc2nc(N(C)C)cc(N3CCCN(c4cc(-c5ccccc5O)nnc4N)CC3)n2)nn(C)c1C [Compound P-140, N-(3-(4-(4-(3-amino-6-(2-hydroxyphenyl)pyridazin-4-yl)-1,4-diazepan-1-yl)-6-(dimethylamino)pyrimidin-2-yl)prop-2-yn-1-yl)-1,4,5-trimethyl-1H-pyrazole-3-carboxamide] | 500 to 5000 | ++ (++=30-70%) | 500 to 5000 | 30 to 70 | – | –
13 | Nc1nnc(-c2ccccc2O)cc1N1CC2CCN(c3ccnc(C#CCNC(=O)c4cc5ncccn5n4)n3)C2C1 (centres unmarked) [Compound P-36, N-(3-(4-(5-(3-amino-6-(2-hydroxyphenyl)pyridazin-4-yl)hexahydropyrrolo[3,4-b]pyrrol-1(2H)-yl)pyrimidin-2-yl)prop-2-yn-1-yl)pyrazolo[1,5-a]pyrimidine-2-carboxamide] | 50 to 500 | +++ (+++=>70%) | 50 to 500 | > 70 | – | –
14 | Nc1nnc(-c2ccccc2O)cc1N1C[C@H]2C[C@@H]1CN2c1ccnc(C#CCNC(=O)c2cc3ncccn3n2)n1 [Compound P-25, N-(3-(4-((1R,4R)-5-(3-amino-6-(2-hydroxyphenyl)pyridazin-4-yl)-2,5-diazabicyclo[2.2.1]heptan-2-yl)pyrimidin-2-yl)prop-2-yn-1-yl)pyrazolo[1,5-a]pyrimidine-2-carboxamide] | 50 to 500 | +++ (+++=>70%) | 50 to 500 | > 70 | – | –
15 | Cc1c(C(=O)NCC#Cc2nccc(N3CCN(c4cc(-c5ccccc5O)nnc4N)CC3)n2)oc2ccccc12 [Compound P-74, N-(3-(4-(4-(3-amino-6-(2-hydroxyphenyl)pyridazin-4-yl)piperazin-1-yl)pyrimidin-2-yl)prop-2-yn-1-yl)-3-methylbenzofuran-2-carboxamide] | 50 to 500 | ++ (++=30-70%) | 50 to 500 | 30 to 70 | – | –

Further lines, results first:

Row | DC50 [1] [nM] | SMARCA2 % Degradation @ 1 μM ([1]; @ 1 μM) | DC50 [2] [nM] | inhibition at 1 µM ([2]; @ 1 μM) [%] | SMARCA2 % Degradation @ 1 μM ([1]; 1 μM) | inhibition at 1 µM ([2]; 1 μM) [%] | Compound
16 | 50 to 500 | ++ (++=30-70%) | 50 to 500 | 30 to 70 | – | – | Nc1nnc(-c2ccccc2O)cc1N1CCCC2(CCN(c3ccnc(C#CCNC(=O)c4cc5ncccn5n4)n3)CC2)C1 [Compound P-33, N-(3-(4-(2-(3-amino-6-(2-hydroxyphenyl)pyridazin-4-yl)-2,9-diazaspiro[5.5]undecan-9-yl)pyrimidin-2-yl)prop-2-yn-1-yl)pyrazolo[1,5-a]pyrimidine-2-carboxamide]
17 | 50 to 500 | ++ (++=30-70%) | 50 to 500 | 30 to 70 | – | – | Nc1nnc(-c2ccccc2O)cc1N1CCC2CCN(c3ccnc(C#CCNC(=O)c4cc5ncccn5n4)n3)C2C1 (centres unmarked) [Compound P-37, N-(3-(4-(6-(3-amino-6-(2-hydroxyphenyl)pyridazin-4-yl)octahydro-1H-pyrrolo[2,3-c]pyridin-1-yl)pyrimidin-2-y1)prop-2-yn-1-yl)pyrazolo[1,5-a]pyrimidine-2-carboxamide]
18 | 50 to 500 | – | 50 to 500 | – | ++ (++=30-70%) | < 30 | C[C@@H]1CCN(c2cc(-c3ccccc3O)nnc2N)CCN1c1ccc(C#N)c(C#CCN2CC(F)(F)C2)n1 [Compound P-412, 6-{(R)-4-[3-amino-6-(0-hydroxyphenyl)-4-pyridazinyl]-7-methyl-1,4-diazepan-1-yl}-2-[3-(3,3-difluoro-1-azetidinyl)-1-propynyl]nicotinonitrile]
19 | 50 to 500 | ++ (++=30-70%) | 50 to 500 | 30 to 70 | – | – | COCC#Cc1nccc(N2CCCN(c3cc(-c4ccccc4O)nnc3N)CC2)n1 [Compound P-342, 0-(6-amino-5-{4-[2-(3-mcthoxy-1-propynyl)-4-pyrimidinyl]-1,4-diazepan-1-yl}-3-pyridazinyl)phenol]
20 | < 50 | ++ (++=30-70%) | < 50 | 30 to 70 | – | – | C[C@@H]1CCN(c2cc(-c3ccccc3O)nnc2N)CCN1c1ccnc(C#CCN2CCCCC2)n1 [Compound P-335, 0-(5-{(R)-5-methyl-4-[2-(3-piperidino-1-propynyl)-4-pyrimidinyl]-1,4-diazepan-1-y1}-6-amino-3-pyridazinyl)phenol]
21 | < 50 | – | < 50 | – | + (+=<30%) | – | CN(C)CC#Cc1cc(OC2CN(c3cc(-c4ccccc4O)nnc3N)C2)ccn1 [Compound P-386, 0-[6-amino-5-(3-{2-[3-(dimethylamino)-1-propynyl]-4-pyridyloxy}-1-azetidinyl)-3-pyridazinyl]phenol]
22 | < 50 | ++ (++=30-70%) | < 50 | 30 to 70 | – | – | CC1CCC(C)N1CC#Cc1nccc(N2CCN(c3cc(-c4ccccc4O)nnc3N)CC[C@H]2C)n1 (stereo partly drawn) [Compound P-246, o-{5-[(R)-4-{2-[3-(2,5-dimethyl-1-pyrrolidinyl)-1-propynyl]-4-pyrimidinyl}-5-methyl-1,4-diazepan-1-yl]-6-amino-3-pyridazinyl}phenol]
